Results as given in BindingDB's records for doi:10.1111/j.1747-0285.2012.01371.x (Korea Research Institute of Chemical Technology, 2012).

molecular target: 5-lipoxygenase (Rattus norvegicus); test: 5-LOX enzyme assay was carried out with some modifications of ferric oxidation of xylenol orange (FOX) assay, which is based on the complex formation of Fe3+/ xylenol orange with absorption at visible light.; settings: pH 7.4

Structure (SMILES) | IC50 [nM]
Oc1ccc(Nc2nc(-c3ccc(Br)cc3)cs2)cc1 [N-aryl-4-aryl-1,3-thiazole-2-amine, 4] | 82
O=[N+]([O-])c1ccc(-c2csc(Nc3ccc(O)cc3)n2)cc1 [N-aryl-4-aryl-1,3-thiazole-2-amine, 6] | 25
Oc1ccc(Nc2nc(-c3ccccc3F)cs2)cc1 [N-aryl-4-aryl-1,3-thiazole-2-amine, 7] | 81
Oc1ccc(Nc2nc(-c3cccc(F)c3)cs2)cc1 [N-aryl-4-aryl-1,3-thiazole-2-amine, 8] | 65
Oc1ccc(Nc2nc(-c3cc(Cl)ccc3Cl)cs2)cc1 [N-aryl-4-aryl-1,3-thiazole-2-amine, 11] | 92
Oc1ccc(Nc2nc(-c3ccc(F)cc3F)cs2)cc1 [N-aryl-4-aryl-1,3-thiazole-2-amine, 12] | 85
Oc1c(Cl)cc(Nc2nc(-c3ccc(Cl)cc3)cs2)cc1Cl [N-aryl-4-aryl-1,3-thiazole-2-amine, 13] | 146

Second part, the compound after the results:

IC50 [nM] | Structure (SMILES)
127 | Cc1cc(Nc2nc(-c3ccc(Cl)cc3)cs2)cc(C)c1O [N-aryl-4-aryl-1,3-thiazole-2-amine, 14]
63 | Cc1cc(Nc2nc(-c3ccc(F)cc3)cs2)cc(Cl)c1O [N-aryl-4-aryl-1,3-thiazole-2-amine, 15]
93 | Oc1c(Cl)cc(Nc2nc(-c3ccc(F)cc3)cs2)cc1Cl [N-aryl-4-aryl-1,3-thiazole-2-amine, 16]
104 | Cc1cc(Nc2nc(-c3ccc(F)cc3)cs2)c(C)cc1O [N-aryl-4-aryl-1,3-thiazole-2-amine, 17]
120 | Nc1ccc(Nc2nc(-c3ccccc3)cs2)cc1 [N-aryl-4-aryl-1,3-thiazole-2-amine, 24]
105 | Nc1ccc(Nc2nc(-c3ccc(F)cc3)cs2)cc1 [N-aryl-4-aryl-1,3-thiazole-2-amine, 25]
201 | Nc1ccc(Nc2nc(-c3ccc(Br)cc3)cs2)cc1 [N-aryl-4-aryl-1,3-thiazole-2-amine, 26]
92 | Nc1ccc(Nc2nc(-c3ccc([N+](=O)[O-])cc3)cs2)cc1 [N-aryl-4-aryl-1,3-thiazole-2-amine, 28]
421 | Nc1ccccc1Nc1nc(-c2ccc(Cl)cc2)cs1 [N-aryl-4-aryl-1,3-thiazole-2-amine, 29]
60 | Nc1ccc(Nc2nc(-c3cc(Cl)ccc3Cl)cs2)cc1 [N-aryl-4-aryl-1,3-thiazole-2-amine, 31]
70 | Nc1ccc(Nc2nc(-c3ccc(F)cc3F)cs2)cc1 [N-aryl-4-aryl-1,3-thiazole-2-amine, 32]
